Tests used:
Assay in all cases: relative viability (nuclei count vs DMSO), 5 days (fraction); higher = more cells survive
NCI-H23 = system: NCI-H23
How it was run: (§1)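 Lung cancer cell lines in 1536-well plates were dosed by pin tool the day after seeding, either with one drug alone or with a fixed anchor-drug dose plus five library-drug doses (not always all listed) in √10 steps. After 5 days, cells were fixed and their nuclei stained in one step (final 0.05% Triton X-100, 1% formaldehyde, 1 ug/ml Hoechst), then counted on 4× images. Relative viability is the nuclei count in treated wells divided by that in vehicle wells. Values are medians of duplicate plates.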

NCI-H596 = system: NCI-H596
How it was run: as §1

NCI-H1648 = system: NCI-H1648
How it was run: as §1

NCI-H322M = system: NCI-H322M
How it was run: as §1

NCI-H1993 = system: NCI-H1993
How it was run: as §1

NCI-H1703 = system: NCI-H1703
How it was run: as §1

NCI-H1355 = system: NCI-H1355
How it was run: as §1

LCLC-97TM1 = system: LCLC-97TM1
How it was run: as §1

UMC-11 = system: UMC-11
How it was run: as §1

IA-LM = system: IA-LM
How it was run: as §1

Question: How did the relative viability (NCI-H23; first compound 0.01 µM) turn out when `CCN(CC)CCCCNc1ncc2cc(-c3cc(OC)cc(OC)c3)c(NC(=O)NC(C)(C)C)nc2n1` + NC(=O)Nc1cc(-c2cccc(F)c2)sc1C(=O)N[C@H]1CCCNC1 [AZD7762] (partner 0.2 µM) was run?
Answer: 0.229

Question: And the relative viability (NCI-H23; first compound 0.03162 µM)?
Answer: 0.352

Question: And the relative viability (NCI-H23; first compound 0.1 µM)?
Answer: 0.323

Question: And the relative viability (NCI-H23; first compound 0.3162 µM)?
Answer: 0.207

Question: And the relative viability (NCI-H23; first compound 1 µM)?
Answer: 0.172

Question: What about the relative viability (NCI-H596; first compound 0.01 µM) of the same molecule?
Answer: 1.11

Question: And the relative viability (NCI-H596; first compound 0.03162 µM)?
Answer: 1

Question: And the relative viability (NCI-H596; first compound 0.1 µM)?
Answer: 1.06

Question: What about the relative viability (NCI-H596; first compound 0.3162 µM) of the same molecule?
Answer: 0.979

Question: And the relative viability (NCI-H596; first compound 1 µM)?
Answer: 0.801

Question: What about the relative viability (NCI-H1648; first compound 0.01 µM) of the same molecule?
Answer: 0.69

Question: What about the relative viability (NCI-H1648; first compound 0.03162 µM) of the same molecule?
Answer: 0.688

Question: And the relative viability (NCI-H1648; first compound 0.1 µM)?
Answer: 0.757

Question: What about the relative viability (NCI-H1648; first compound 0.3162 µM) of the same molecule?
Answer: 0.583

Question: What about the relative viability (NCI-H1648; first compound 1 µM) of the same molecule?
Answer: 0.445

Question: And the relative viability (NCI-H322M; first compound 0.01 µM)?
Answer: 0.578

Question: What about the relative viability (NCI-H322M; first compound 0.03162 µM) of the same molecule?
Answer: 0.52

Question: What about the relative viability (NCI-H322M; first compound 0.1 µM) of the same molecule?
Answer: 0.59

Question: What about the relative viability (NCI-H322M; first compound 0.3162 µM) of the same molecule?
Answer: 0.728

Question: And the relative viability (NCI-H322M; first compound 1 µM)?
Answer: 0.559

Question: What about the relative viability (NCI-H1993; first compound 0.01 µM) of the same molecule?
Answer: 0.896

Question: And the relative viability (NCI-H1993; first compound 0.03162 µM)?
Answer: 0.708

Question: And the relative viability (NCI-H1993; first compound 0.1 µM)?
Answer: 0.721

Question: And the relative viability (NCI-H1993; first compound 0.3162 µM)?
Answer: 0.97

Question: What about the relative viability (NCI-H1993; first compound 1 µM) of the same molecule?
Answer: 0.869

Question: And the relative viability (NCI-H1703; first compound 0.03162 µM)?
Answer: 0.0943

Question: What about the relative viability (NCI-H1703; first compound 0.1 µM) of the same molecule?
Answer: 0.12

Question: What about the relative viability (NCI-H1703; first compound 0.3162 µM) of the same molecule?
Answer: 0.143

Question: And the relative viability (NCI-H1703; first compound 1 µM)?
Answer: 0.112

Question: And the relative viability (NCI-H1355; first compound 0.01 µM)?
Answer: 0.809

Question: And the relative viability (NCI-H1355; first compound 0.03162 µM)?
Answer: 0.776

Question: And the relative viability (NCI-H1355; first compound 0.1 µM)?
Answer: 0.766

Question: What about the relative viability (NCI-H1355; first compound 0.3162 µM) of the same molecule?
Answer: 0.801

Question: What about the relative viability (NCI-H1355; first compound 1 µM) of the same molecule?
Answer: 0.515

Question: What about the relative viability (LCLC-97TM1; first compound 0.03162 µM) of the same molecule?
Answer: 0.384

Question: And the relative viability (LCLC-97TM1; first compound 0.1 µM)?
Answer: 0.275

Question: What about the relative viability (LCLC-97TM1; first compound 0.3162 µM) of the same molecule?
Answer: 0.234

Question: And the relative viability (LCLC-97TM1; first compound 1 µM)?
Answer: 0.227

Question: Which relative viability (UMC-11; first compound 0.08 µM) does the source give for `O=c1cc(-c2cccc3c2Sc2ccccc2S3)oc(N2CCOCC2)c1` + O=C(CCCCCCC(=O)Nc1ccccc1)NO [Vorinostat] (partner 1 µM) here?
Answer: 0.312

Question: What about the relative viability (UMC-11; first compound 0.253 µM) of the same molecule?
Answer: 0.454

Question: And the relative viability (UMC-11; first compound 0.8 µM)?
Answer: 0.362

Question: And the relative viability (UMC-11; first compound 2.53 µM)?
Answer: 0.394

Question: And the relative viability (UMC-11; first compound 8 µM)?
Answer: 0.336

Question: And the relative viability (NCI-H23; first compound 0.08 µM)?
Answer: 0.477

Question: And the relative viability (NCI-H23; first compound 0.253 µM)?
Answer: 0.593

Question: What about the relative viability (NCI-H23; first compound 0.8 µM) of the same molecule?
Answer: 0.669

Question: And the relative viability (NCI-H23; first compound 2.53 µM)?
Answer: 0.543

Question: And the relative viability (NCI-H23; first compound 8 µM)?
Answer: 0.516

Question: What about the relative viability (NCI-H596; first compound 0.08 µM) of the same molecule?
Answer: 0.51

Question: And the relative viability (NCI-H596; first compound 0.253 µM)?
Answer: 0.749

Question: And the relative viability (NCI-H596; first compound 0.8 µM)?
Answer: 0.585

Question: And the relative viability (NCI-H596; first compound 2.53 µM)?
Answer: 0.575

Question: And the relative viability (NCI-H596; first compound 8 µM)?
Answer: 0.717

Question: What about the relative viability (IA-LM; first compound 0.253 µM) of the same molecule?
Answer: 1.31

Question: And the relative viability (IA-LM; first compound 0.8 µM)?
Answer: 0.966

Question: And the relative viability (IA-LM; first compound 2.53 µM)?
Answer: 0.863

Question: What about the relative viability (IA-LM; first compound 8 µM) of the same molecule?
Answer: 1.08

Question: What about the relative viability (NCI-H1648; first compound 0.253 µM) of the same molecule?
Answer: 0.468

Question: And the relative viability (NCI-H1648; first compound 0.8 µM)?
Answer: 0.65

Question: And the relative viability (NCI-H1648; first compound 8 µM)?
Answer: 0.457

Question: And the relative viability (NCI-H322M; first compound 0.08 µM)?
Answer: 0.839

Question: And the relative viability (NCI-H322M; first compound 0.253 µM)?
Answer: 1.01

Question: What about the relative viability (NCI-H322M; first compound 0.8 µM) of the same molecule?
Answer: 0.948

Question: What about the relative viability (NCI-H322M; first compound 2.53 µM) of the same molecule?
Answer: 0.825

Question: And the relative viability (NCI-H322M; first compound 8 µM)?
Answer: 0.867

Question: And the relative viability (NCI-H1993; first compound 0.08 µM)?
Answer: 0.723

Question: What about the relative viability (NCI-H1993; first compound 0.253 µM) of the same molecule?
Answer: 0.843

Question: What about the relative viability (NCI-H1993; first compound 0.8 µM) of the same molecule?
Answer: 0.908

Question: What about the relative viability (NCI-H1993; first compound 2.53 µM) of the same molecule?
Answer: 0.755

Question: And the relative viability (NCI-H1993; first compound 8 µM)?
Answer: 0.736

Question: What about the relative viability (NCI-H1355; first compound 0.08 µM) of the same molecule?
Answer: 0.628

Question: And the relative viability (NCI-H1355; first compound 0.253 µM)?
Answer: 0.709

Question: And the relative viability (NCI-H1355; first compound 0.8 µM)?
Answer: 0.526

Question: What about the relative viability (NCI-H1355; first compound 2.53 µM) of the same molecule?
Answer: 0.654

Question: And the relative viability (NCI-H1355; first compound 8 µM)?
Answer: 0.584

Question: And the relative viability (LCLC-97TM1; first compound 0.08 µM)?
Answer: 0.638

Question: And the relative viability (LCLC-97TM1; first compound 0.253 µM)?
Answer: 0.927

Question: And the relative viability (LCLC-97TM1; first compound 0.8 µM)?
Answer: 0.803

Question: And the relative viability (LCLC-97TM1; first compound 2.53 µM)?
Answer: 0.602

Question: And the relative viability (LCLC-97TM1; first compound 8 µM)?
Answer: 1.06
